Source: patent US7928088B2, “Th1 cell differentiation accelerator” (priority 2006, dated 2011)
Read-outs that look alike come from different tables or passages of the source.

How the values were obtained:
human naive CD4T cells [1] = format: cell-based; settings: for IFNγ+IL-4− cells (%) / ratio of IFNγ-producing cells (in words): Th1 differentiation inducing conditions; for IFNγ+IL-4− cells (%): crude human CD4T cells; for ratio of IFNγ-producing cells (in words): summary of Tables 4 and 5
human naive CD4T cells [2] = test: Human Th2 differentiation induction culture with intracellular IFNγ/IL-4 staining and flow cytometry; format: cell-based; settings: for ratio of IFNγ-producing cells (in words) / ratio of IL-4-producing cells (in words) / IFNγ+IL-4− cells (%) / IFNγ−IL-4+ cells (%): Th2 differentiation inducing conditions; for IFNγ+IL-4− cells (%) / IFNγ−IL-4+ cells (%): crude human CD4T cells; for IFNγ+IL-4− cells (%): control 18.1; for IFNγ−IL-4+ cells (%): control 19.4
Description: Separation of human naive CD4T cells was performed using an automated magnetic cell sorter (autoMACS Miltenyi Biotec GmbH) by the method described below. Whole blood was drawn by venous paracentesis from six healthy donor volunteers at 24 to 50 years of age. 50 ml of human peripheral blood was diluted two fold with 50 ml of a D-PBS solution (Sigma-Aldrich Inc). Next, 25 ml of the above-described diluted peripheral blood was gradually overlain in four centrifugal tubes containing 12.5 ml of Ficoll-Paque Plus (Amersham Biosciences), and the tubes were centrifuged using a centrifuge at room temperature and 950 G for 30 minutes. After centrifugation, lymphocytes present in the intermediate layer between the Ficoll-Paque and the supernatant were recovered, and suspended in a D-PBS solution containing 3% fetal calf serum (FCS: JRH Biosiences) and 2 mM EDTA (Dojindo Inc) (hereinafter, referred to as MACS buffer); the suspension was centrifuged using a centrifuge at 4° C. and 500 G for 5 minutes to sediment the lymphocytes. The resulting lymphocyte pellet was again suspended in MACS buffer; the suspension was centrifuged at 500 G for 5 minutes to sediment the lymphocytes, and twice washed to yield a lymphocyte pellet. This cell pellet was again suspended in the MACS buffer to obtain a cell density of 1×10^8 cells/ml. To 1×10^7 lymphocytes, 2 μL of an FITC-labeled anti-human CD8 antibody (BD BioScience Pharmingen) and 2 μL of an FITC-labeled anti-human CD45RO antibody (BD BioScience Pharmingen) were added, and they were reacted on ice for 30 minutes to thereby bind each antibody. The MACS buffer was added to the reaction mixture, and the mixture was centrifuged and twice washed at 4° C. Next, 10 μL of anti-FITC microbeads (Miltenyi Biotec GmbH) was added to 1×10^7 lymphocytes coupled with each antibody, and they were reacted with each other on ice for 15 minutes. The MACS buffer was added to the reaction mixture, and the mixture was centrifuged and twice washed at 4° C. The cell pellet obtained was suspended in the MACS buffer to obtain a cell density of 5×10^7/ml, and the suspension was passed through a nylon mesh (Abe Kagaku), after which a CD8- and CD45RO-double-negative fraction was recovered using an automated magnetic cell sorter (AutoMACS Miltenyi Biotec GmbH) to thereby separate human naive CD4T cells, which were supplied for the following experiments.
Under Th2 differentiation conditions, the cells were stimulated on a plate having the anti-CD3 antibody immobilized thereon for 2 days in a differentiation induction medium containing 50 U/ml (final concentration) IL-2 (Immunace, Shionogi & Co., Ltd.), 1 ng/ml (final concentration) IL-4, and 5 μg/ml (final concentration) anti-IFNγ antibody (Pharmingen, and the cells were transferred to a plate without immobilized anti-CD3 antibody, and cultured for 5 days. Furthermore, in the case of Th2 cell differentiation, following the 2 days, 5 days of differentiation induction was performed in two consecutive cycles.
Unless otherwise specified, the final concentrations of CW, LAM/LM, PIM2 and PIM6 were adjusted to 100 μg/ml.
Cells undergoing Th1 differentiation induction (Th1-induced cells) and cells undergoing Th2 differentiation induction (Th2-induced cells) were cultured and stimulated in the presence of Monensin (Sigma) in a medium supplemented with PMA (Phorbol-12-Myristate-13-Acetate, Sigma-Aldrich) and Ionomycin (Calbiochem) for 4 hours. After stimulation, intracellular staining was performed by the method described below, the cells were analyzed using a cell analyzer (FACScalibur), and the degree of Th1 or Th2 differentiation induction was evaluated. […]

[3] = 10 μg/ml, Table 4 test, vehicle 51.2
[4] = 30 μg/ml, Table 5 test, vehicle 60.6
[5] = 100 μg/ml, Table 4 test, vehicle 51.2
[6] = 100 μg/ml, Table 5 test, vehicle 60.6

Substance	number of IFNγ-producing cells (in words) (human naive CD4T cells [1]; Th1 differentiation conditions, T cells from six healthy human volunteers, 100 μg/ml, FIGS. 8 and 9)	potential to induce Th1 differentiation (human naive CD4T cells [1]; Th1 differentiation induction, 100 μg/ml, FIG. 7B)	number of IL-4-producing cells (in words) (human naive CD4T cells [2]; Th2 differentiation conditions, T cells from six healthy human volunteers, 100 μg/ml, FIGS. 8 and 9)	ratio of IFNγ-producing cells (in words) (human naive CD4T cells [2]; 100 μg/ml, FIG. 7B)	ratio of IL-4-producing cells (in words) (human naive CD4T cells [2]; 100 μg/ml, FIG. 7B)	IFNγ+IL-4− cells (%) (human naive CD4T cells [1]; [3])	IFNγ+IL-4− cells (%) (human naive CD4T cells [1]; [4])	IFNγ+IL-4− cells (%) (human naive CD4T cells [1]; [5])	IFNγ+IL-4− cells (%) (human naive CD4T cells [1]; [6])	ratio of IFNγ-producing cells (in words) (human naive CD4T cells [1])	ratio of IFNγ-producing cells (in words) (human naive CD4T cells [2]; FIG. 13 and Table 6)	ratio of IL-4-producing cells (in words) (human naive CD4T cells [2]; FIG. 13 and Table 6)	IFNγ+IL-4− cells (%) (human naive CD4T cells [2]; 3 μg/ml)	IFNγ−IL-4+ cells (%) (human naive CD4T cells [2]; 3 μg/ml)	IFNγ+IL-4− cells (%) (human naive CD4T cells [2]; 30 μg/ml)	IFNγ−IL-4+ cells (%) (human naive CD4T cells [2]; 30 μg/ml)
cardiolipin [reference compound]	did not increase	did not exhibit the potential to induce Th1 differentiation	increased	did not increase	increased	–	–	–	–	–	–	–	–	–	–	–
lipoarabinomannan [LAM]	–	–	–	–	–	55.9	63.1	55.4	67.6	significantly increased	dose-dependently increased	dose-dependently suppressed	26.9	17.2	34.8	11.9
lipomannan [LM]	–	–	–	–	–	56.7	70.5	67.9	69.1	significantly increased	dose-dependently increased	dose-dependently suppressed	29.5	14.3	38.4	8.8
